This note sets out measurements from patent US9040071B2, “Pary-xylene based microfilm elution devices” (Cute Lovable Teddy Bear, LLC., priority 2009, dated 2015).

Structures can show the parent of a compound that is named as a salt.

What all share (type): physicochemical
A short description of data set [1]: Paclitaxel elution from parylene devices (Example 9). The following applies: uncovered devices (no top layer); PBS, 37 degrees Celsius; judged by visualization of the devices. From the text:
Referring to FIG. 14, Example 9 is an experiment to test the elution of paclitaxel (taxol). Paclitaxel is smaller hydrophobic molecule drug and has the chemical composition of (2α,4α,5β,7β,10β,13α)-4,10-bis(acetyloxy)-13-{[(2R,3S)-3-(benzoylamino)-2-hydroxy-3-phenylpropanoyl]oxy}-1,7-dihydroxy-9-oxo-5,20-epoxytax-11-en-2-yl benzoate. It is a microtubule stabilizing therapeutic with anti-cancer properties.
A series of trilayer devices were constructed having a top barrier layer having a mass of 0.3, 0.45, or 0.6 gram oxidized parylene.
Devices containing no top layer (uncovered) were not maintained as part of these experiments in that all of the drug is released from uncovered devices within the first 24 hours. […] With rapidly increasing concentration, the paclitaxel rapidly precipitates out of solution (visible by the accumulation of white precipitate) making quantification of the released drug impossible. Drug release from uncovered devices was determinable by the visualization of the devices and noticing the lack of drug on their surfaces.
For each time point, peak absorbance was measured at 230 nanometers at which paclitaxel is readily detectable.

Data set [2] is described as follows: Therapeutic spreading on unoxidized vs oxidized parylene layer (Example 1). An excerpt: Referring to FIG. 4, Example 1 is an experiment to compare therapeutic spreading with respect to an unoxidized parylene layer and an oxidized parylene layer. The therapeutic analyte was Doxorubicin-HCl. Doxorubicin-HCl is the salt version of the anti-cancer chemotherapeutic Doxorubicin: (8S,10S)-8-acetyl-10-[(2S,4S,5S,6S)-4-amino-5-hydroxy-6-methyl-oxan-2-yl]oxy-6,8,11,14-tetrahydroxy-1-methoxy-9,10-dihydro-7H-tetracene-5,12-dione, having four fused six member rings of which two are unsaturated and one is a dione and a pendant sugar group The Doxorubicin-HCl has a red color and is easily visualized with no additional modification.
FIG. 5 is plot of therapeutic intensity vs. distance a from the a peripheral margin along a great diameter. Discarding values at the margin, for unoxidized paralyene there are two peaks and three troughs with amplitude variation ranging from about 0.009 to about 0.012 with units being arbitrary values of intensity measurement. In contrast, for oxidized paralyene, there are no significant peaks or troughs and near constant intensity at about 0.008.

A short description of data set [3]: Doxorubicin-HCl elution, multilayer laminate vs single layer barrier, in water and media (Example 5). The note with it: for elution rate: compared with 0.05 gram-layer constructs.
Where [4] appears, read: oxidized parylene relative to unoxidized parylene, 50 μg desiccated, two replicates.

In the case of `CC(=O)O[C@H]1C(=O)[C@@]2(C)[C@H]([C@H](OC(=O)c3ccccc3)[C@]3(O)C[C@H](OC(=O)[C@H](O)[C@@H](NC(=O)c4ccccc4)c4ccccc4)C(C)=C1C3(C)C)[C@]1(OC(C)=O)CO[C@@H]1C[C@@H]2O` [paclitaxel, (2α,4α,5β,7β,10β,13α)-4,10-bis(acetyloxy)-13-{[(2R,3S)-3-(benzoylamino)-2-hydroxy-3-phenylpropanoyl]oxy}-1,7-dihydroxy-9-oxo-5,20-epoxytax-11-en-2-yl benzoate], in data set [1], the “time within which all of the drug is released” value was at most 24 h.

Regarding `COc1cccc2c1C(=O)c1c(O)c3c(c(O)c1C2=O)C[C@@](O)(C(=O)CO)C[C@@H]3O[C@H]1C[C@H](N)[C@H](O)[C@H](C)O1` [Doxorubicin-HCl], the “radius of stained area” value in data set [2] (setting [4]) was “about twice the radius”. In addition, the “surface area of stained area” value in data set [2] (setting [4]) is “four times the surface area”. In addition, in data set [2] (oxidized parylene, no significant peaks or troughs, near constant), the therapeutic intensity entry was “about 0.008 arbitrary values of intensity measurement”. The “drug release vs single layer device of 0.05 gram laminate” value is reported as “release less drug” in data set [3] (media, multilayer laminate 3×0.05 grams); “release less drug” in data set [3] (media, multilayer laminate 5×0.05 grams); “release less drug” in data set [3] (media, multilayer laminate 7×0.05 grams). Further, the “elution profile compared among constructs” value is recorded as “approximately the same elution profile” in data set [3] (media, multilayer laminate constructs of 3×0.05, 5×0.05 and 7×0.05 grams); “approximately the same elution profile” in data set [3] (water, constructs of 1×0.05, 3×0.05, 5×0.05 and 7×0.05 grams). Further, the drug release result in data set [3] (media, single layer laminate device of 0.15 grams, regular parylene C) is on record as “do not release the drug”; in data set [3] (media, single layer laminate device of 0.25 grams, regular parylene C), “do not release the drug”; in data set [3] (media, single layer laminate device of 0.35 grams, regular parylene C), “do not release the drug”; in data set [3] (water, single layer laminate device of 0.35 grams), “does not release the drug”. Besides, the elution rate entry in data set [3] (water, single layer laminate device of 0.15 grams) is given as “slower elution”; in data set [3] (water, single layer laminate device of 0.25 grams), “slower elution”.
